Test results published in patent publication US12391680B2, “Compounds and compositions for the treatment of cystic fibrosis” (FONDAZIONE ISTITUTO ITALIANO DI TECNOLOGIA, priority 2019, dated 2025).

How the values were obtained:
[1] = biological target: F508del-CFTR (Homo sapiens, UniProt P13569, DEL508-508); test: Short-circuit current recordings on human bronchial epithelial cells from CF patients (F508del/F508del); type: cell-based; design: Human bronchial epithelial (HBE) cells obtained from CF patients (F508del/F508del genotype); endogenous in cells; host or cells: primary human bronchial epithelial cells from CF patients, F508del/F508del; settings: HBE cells F508del/F508del, 24 hrs treatment, CPT-cAMP plus VX-770 minus CFTRinh-172
Sequence of F508del-CFTR (P13569 with tags, fused parts or gaps DEL508-508): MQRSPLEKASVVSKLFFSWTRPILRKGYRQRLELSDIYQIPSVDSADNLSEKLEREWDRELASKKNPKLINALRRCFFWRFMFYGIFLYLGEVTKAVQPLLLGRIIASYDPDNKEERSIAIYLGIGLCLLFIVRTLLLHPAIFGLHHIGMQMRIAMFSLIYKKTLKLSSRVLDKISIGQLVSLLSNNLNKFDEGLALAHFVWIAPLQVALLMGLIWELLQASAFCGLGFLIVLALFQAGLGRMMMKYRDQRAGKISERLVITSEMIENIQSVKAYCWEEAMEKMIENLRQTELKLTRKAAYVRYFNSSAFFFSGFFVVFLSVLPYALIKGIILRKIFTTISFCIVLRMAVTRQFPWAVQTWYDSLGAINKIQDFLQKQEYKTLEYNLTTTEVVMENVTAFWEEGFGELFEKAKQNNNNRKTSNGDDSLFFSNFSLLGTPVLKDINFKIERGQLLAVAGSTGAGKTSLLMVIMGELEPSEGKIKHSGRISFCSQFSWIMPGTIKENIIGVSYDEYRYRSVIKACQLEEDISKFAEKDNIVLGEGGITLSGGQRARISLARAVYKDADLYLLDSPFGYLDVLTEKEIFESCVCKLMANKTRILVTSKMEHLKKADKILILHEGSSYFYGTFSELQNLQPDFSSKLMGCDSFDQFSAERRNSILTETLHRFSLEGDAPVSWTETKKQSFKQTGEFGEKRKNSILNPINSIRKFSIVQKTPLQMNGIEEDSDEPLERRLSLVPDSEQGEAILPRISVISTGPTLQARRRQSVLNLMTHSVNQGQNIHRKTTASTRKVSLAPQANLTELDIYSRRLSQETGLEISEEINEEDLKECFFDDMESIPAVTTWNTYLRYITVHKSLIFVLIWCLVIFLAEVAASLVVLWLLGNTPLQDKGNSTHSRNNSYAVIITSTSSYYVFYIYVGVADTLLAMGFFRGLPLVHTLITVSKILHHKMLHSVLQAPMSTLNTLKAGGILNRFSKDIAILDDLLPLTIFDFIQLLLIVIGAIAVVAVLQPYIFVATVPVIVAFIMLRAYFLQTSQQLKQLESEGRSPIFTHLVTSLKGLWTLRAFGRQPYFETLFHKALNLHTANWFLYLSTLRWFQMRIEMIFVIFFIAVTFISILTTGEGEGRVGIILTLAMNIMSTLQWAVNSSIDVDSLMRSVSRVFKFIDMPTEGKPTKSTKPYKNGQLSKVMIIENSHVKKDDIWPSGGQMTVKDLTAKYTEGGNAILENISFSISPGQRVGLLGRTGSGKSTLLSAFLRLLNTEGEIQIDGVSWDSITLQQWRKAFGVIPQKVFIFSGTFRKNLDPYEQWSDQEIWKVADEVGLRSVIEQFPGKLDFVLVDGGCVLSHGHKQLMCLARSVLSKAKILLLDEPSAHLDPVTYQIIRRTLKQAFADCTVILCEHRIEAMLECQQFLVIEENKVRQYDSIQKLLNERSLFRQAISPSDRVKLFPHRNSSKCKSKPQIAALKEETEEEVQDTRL
Procedure: Human bronchial epithelial (HBE) cells obtained from CF patients (F508del/F508del genotype) were plated on Snapwell inserts (Code 3801, Corning Life Sciences) at a density of 500,000 cells per insert. Cells were cultured for two weeks in a differentiating medium whose compositions has been previously described (Scudieri et al., J Physiol 590:6141-6155, 2012). For the first week, the medium was kept on both apical and basolateral sides of inserts (submerged condition). For the second week, the apical medium was removed (air-liquid condition, ALC). To test the activity of correctors, cells were treated for 24 hrs with compounds dissolved in the basolateral medium. After treatment, Snapwell inserts carrying differentiated bronchial epithelia were mounted in a vertical chamber resembling an Ussing system with internal fluid circulation. Both apical and basolateral hemichambers were filled with 5 mL of a Krebs bicarbonate solution containing (in mM): 126 NaCl, 0.38 KH2PO4, 2.13 K2HPO4, 1 MgSO4, 1 CaCl2, 24 NaHCO3, and 10 glucose. Both sides were continuously bubbled with a gas mixture containing 5% CO2-95% air and the temperature of the solution was kept at 37° C. The transepithelial voltage was short-circuited with a voltage-clamp (DVC-1000, World Precision Instruments) connected to the apical and basolateral chambers via Ag/AgCl electrodes and agar bridges (1 M KCl in 1% agar). The offset between voltage electrodes and the fluid resistance were canceled before experiments. The short-circuit current was recorded with a PowerLab 4/25 (ADInstruments) analogical to digital converter connected to a Macintosh computer. […] The difference between the current measured with CPT-cAMP plus potentiator and the current remaining after CFTRinh-172 treatment (ΔICFTR) was taken as the parameter reflecting F508del-CFTR expression in the apical membrane.
Activities of selected compounds on HBE cells (expressed as ΔICFTR) are illustrated in Table 3 wherein+: ΔICFTR<2.0 μA; ++: 2.0 μA<ΔICFTR<3.0 μA; +++: ΔICFTR >3.0 μA.

[2] = biological target: mutant CFTR (Homo sapiens, UniProt P13569); test: Fluorescence assay for CFTR activity (halide-sensitive YFP, HS-YFP); type: cell-based; settings: CFBE41o- and FRT cells with stable expression of mutant CFTR
Sequence of mutant CFTR (P13569 with tags, fused parts or gaps DEL508-508): as above
Procedure: Mutant CFTR activity was determined with the functional assay based on the halide-sensitive yellow fluorescent protein, HS—YFP (Galietta et al., FEBS Lett 499:220-224, 2001). CFBE41o- and FRT cells with stable expression of mutant CFTR and HS—YFP were plated on clear-bottom 96-well black microplates (Code 3603, Corning Life Sciences) at a density of 50,000 cells/well and kept at 37° C. in 5% CO2 for 24 hours.
For the corrector assay, cells were treated for further 24 hours with test compounds, vehicle (DMSO), or the positive control VX-809. After treatment, the culture medium was removed and cells in each well were stimulated for 30 min at 37° C. with 60 μL PBS (containing 137 mM NaCl, 2.7 mM KCl, 8.1 mM Na2HPO4, 1.5 mM KH2PO4, 1 mM CaCl2, and 0.5 mM MgCl2) plus forskolin (20 μM) and genistein (50 μM).
For determination of potentiator activity on F508del-CFTR, cells were incubated for 24 hours at 27° C. to allow trafficking of the mutant protein to plasma membrane. Cells were then stimulated with for 30 min with PBS containing forskolin (20 μM) plus the compound to be tested at the desired concentration. For determination of potentiator activity on G551D-CFTR or G1349D-CFTR, cells were directly stimulated with forskolin plus test compound without previous incubation at low temperature. At the time of assay, microplates carrying CFBE41o- or FRT cells were transferred to microplate readers (BMG Labtech) equipped with high-quality excitation (HQ500/20×: 500±10 nm) and emission (HQ535/30M: 535±15 nm) filters for YFP (Chroma Technology). The assay consisted of a continuous 14 s fluorescence reading with 2 s before and 12 s after injection of an iodide-containing solution (165 μL of a modified PBS containing I^− instead of Cl^−; final I^− concentration in the well: 100 mM). Data were normalized to the initial background-subtracted fluorescence. Enhanced CFTR activity, induced by correctors and/or potentiators, results in accelerated I^− influx that in turn causes faster HS—YFP quenching (Pedemonte et al., Mol Pharmacol 68:1736-1746, 2005; Pedemonte et al., J Clin Invest 115:2564-2571, […]). To determine fluorescence quenching rate associated with I^− influx, the final 10 s of data for each well were fitted with an exponential function to extrapolate initial slope (dF/dt).
EC50 obtained are illustrated in Table 1 wherein+: EC50>2 μM; ++: 1.0 μM <EC50<2 μM; +++: EC50<1 μM.

SMILES	activity (ΔICFTR) [1]	EC50 [2] [µM]
Cc1cc(S(=O)(=O)N2CCOC(c3c(C(N)=O)sc4ccccc34)C2)ccc1C(F)(F)F (racemic) [compound 044, rac-3-[4-[3-methyl-4-(trifluoromethyl)phenyl]sulfonylmorpholin-2-yl]benzothiophene-2-carboxamide]	++ (2.0 μA<ΔICFTR<3.0 μA)	1 to 2
Cc1cc(C)c(S(=O)(=O)N2CCOC(c3c(C(N)=O)sc4ccccc34)C2)c(C)c1 (racemic) [compound 032, rac-3-[4-(2,4,6-trimethylphenyl)sulfonylmorpholin-2-yl]benzothiophene-2-carboxamide]		> 2
NC(=O)c1sc2ccccc2c1C1CN(S(=O)(=O)c2ccc(F)c(F)c2)CCO1 (racemic) [compound 021, rac-3-[4-(3,4-difluorophenyl)sulfonylmorpholin-2-yl]benzothiophene-2-carboxamide]		> 2
CNC(=O)c1sc2ccccc2c1C1CN(S(=O)(=O)c2c(C)noc2C)CCO1 (centres unmarked) [compound 075, 3-[4-(3,5-dimethyl-isoxazole-4-sulfonyl)-morpholin-2-yl]-benzo[b]thiophene-2-carboxylic acid methylamide]		> 2
NC(=O)c1sc2ccccc2c1C1CN(S(=O)(=O)c2ccc(C(F)(F)F)c(F)c2)CCO1 (single isomer, unassigned) [compound 056]		< 1
NC(=O)c1sc2ccccc2c1C1CN(S(=O)(=O)c2ccc(Oc3ccccc3)cc2)CCO1 (racemic) [compound 006, rac-3-[4-(4-phenoxyphenyl)sulfonylmorpholin-2-yl]benzothiophene-2-carboxamide]		< 1
NC(=O)c1sc2ccccc2c1C1CN(S(=O)(=O)c2cccc(Br)c2)CCO1 (racemic) [compound 009, rac-3-[4-(3-bromophenyl)sulfonylmorpholin-2-yl]benzothiophene-2-carboxamide]		> 2
CCCCS(=O)(=O)N1CCOC(c2c(C(N)=O)sc3ccccc23)C1 (racemic) [compound 061, rac-3-[4-butylsulfonylmorpholin-2-yl]benzothiophene-2-carboxamide]		> 2
N#Cc1cccc(S(=O)(=O)N2CCOC(c3c(C(N)=O)sc4ccccc34)C2)c1 (racemic) [compound 062, rac-3-[4-(3-cyanophenyl)sulfonylmorpholin-2-yl]benzothiophene-2-carboxamide]		> 2
COc1ccc(S(=O)(=O)N2CCOC(c3c(C(N)=O)sc4ccccc34)C2)cc1C(F)(F)F (racemic) [compound 046, rac-3-[4-[4-methoxy-3-(trifluoromethyl)phenyl]sulfonylmorpholin-2-yl]benzothiophene-2-carboxamide]		< 1
NC(=O)c1sc2ccccc2c1C1CN(S(=O)(=O)c2cccc(OC(F)(F)F)c2)CCO1 (racemic) [compound 049, rac-3-[4-[3-(trifluoromethoxy)phenyl]sulfonylmorpholin-2-yl]benzothiophene-2-carboxamide]		> 2
NC(=O)c1sc2ccccc2c1C1CN(S(=O)(=O)c2ccc3c(c2)OCO3)CCO1 (racemic) [compound 017, rac-3-[4-(1,3-benzodioxol-5-ylsulfonyl)morpholin-2-yl]benzothiophene-2-carboxamide]		1 to 2
Cc1nc2ccc(S(=O)(=O)N3CCO[C@@H](c4c(C(N)=O)sc5ccccc45)C3)cc2o1 (single isomer, unassigned) [compound 070]		> 2
NC(=O)c1sc2ccccc2c1C1CN(S(=O)(=O)c2ccc(Cl)cc2)CCO1 (racemic) [compound 040, rac-3-[4-(4-chlorophenyl)sulfonylmorpholin-2-yl]benzothiophene-2-carboxamide]		1 to 2
Cc1ccc(S(=O)(=O)N2CCOC(c3c(C(N)=O)sc4ccccc34)C2)cc1F (racemic) [compound 026, rac-3-[4-(3-fluoro-4-methyl-phenyl)sulfonylmorpholin-2-yl]benzothiophene-2-carboxamide]		< 1
COC(=O)c1ccc(S(=O)(=O)N2CCOC(c3c(C(N)=O)sc4ccccc34)C2)cc1 (racemic) [compound 063, rac-methyl 4-[2-(2-carbamoylbenzothiophen-3-yl)morpholin-4-yl]sulfonylbenzoate]		> 2
Cc1cc(S(=O)(=O)N2CCOC(c3c(C(=O)N(C)C)sc4ccccc34)C2)ccc1F (racemic) [compound 025, rac-3-[4-(4-fluoro-3-methyl-phenyl)sulfonylmorpholin-2-yl]-N,N-dimethyl-benzothiophene-2-carboxamide]		> 2
NC(=O)c1sc2ccccc2c1C1CN(S(=O)(=O)c2ccc(-c3ccccc3)cc2)CCO1 (racemic) [compound 051, rac-3-[4-(4-phenylphenyl)sulfonylmorpholin-2-yl]benzothiophene-2-carboxamide]		< 1
NC(=O)c1sc2ccccc2c1C1CN(S(=O)(=O)c2ccccc2)CCO1 (racemic) [compound 003, rac-3-[4-(benzenesulfonyl)morpholin-2-yl]benzothiophene-2-carboxamide]		> 2
Cc1ccc(F)cc1S(=O)(=O)N1CCOC(c2c(C(N)=O)sc3ccccc23)C1 (racemic) [compound 027, rac-3-[4-(5-fluoro-2-methyl-phenyl)sulfonylmorpholin-2-yl]benzothiophene-2-carboxamide]		> 2
COC(=O)c1cccc(S(=O)(=O)N2CCOC(c3c(C(N)=O)sc4ccccc34)C2)c1 (racemic) [compound 007, rac-methyl 3-[2-(2-carbamoylbenzothiophen-3-yl)morpholin-4-yl]sulfonylbenzoate]		> 2
COc1ccc(Oc2ccc(S(=O)(=O)N3CCOC(c4c(C(N)=O)sc5ccccc45)C3)cc2)cc1 (racemic) [compound 019, rac-3-[4-[4-(4-methoxyphenoxy)phenyl]sulfonylmorpholin-2-yl]benzothiophene-2-carboxamide]		> 2
COc1cc(S(=O)(=O)N2CCOC(c3c(C(N)=O)sc4ccccc34)C2)ccc1C(F)(F)F (racemic) [compound 045, rac-3-[4-[3-methoxy-4-(trifluoromethyl)phenyl]sulfonylmorpholin-2-yl]benzothiophene-2-carboxamide]		1 to 2
NC(=O)c1sc2ccccc2c1C1CN(S(=O)(=O)c2ccc(O)cc2)CCO1 (racemic) [compound 068, rac-3-[4-(4-hydroxyphenyl)sulfonylmorpholin-2-yl]benzothiophene-2-carboxamide]		> 2
NC(=O)c1sc2ccccc2c1C1CN(S(=O)(=O)c2ccc3ccccc3c2)CCO1 (racemic) [compound 052, rac-3-[4-(2-naphthylsulfonyl)morpholin-2-yl]benzothiophene-2-carboxamide]		> 2
